Measurements reported in ChEMBL document CHEMBL3792282, “Cinnamic acid amides from Tribulus terrestris displaying uncompetitive α-glucosidase inhibition” (Eur J Med Chem, 2016).
Calls of active or inactive are those of the source. No cut-off for these calls is given here.

What was measured:
[1] = molecular target: T1, Beta-glucosidase (Homo sapiens) (UniProt Q9HCG7); assay: Inhibition of beta-glucosidase (unknown origin) up to 200 uM
T1 sequence (whole entry): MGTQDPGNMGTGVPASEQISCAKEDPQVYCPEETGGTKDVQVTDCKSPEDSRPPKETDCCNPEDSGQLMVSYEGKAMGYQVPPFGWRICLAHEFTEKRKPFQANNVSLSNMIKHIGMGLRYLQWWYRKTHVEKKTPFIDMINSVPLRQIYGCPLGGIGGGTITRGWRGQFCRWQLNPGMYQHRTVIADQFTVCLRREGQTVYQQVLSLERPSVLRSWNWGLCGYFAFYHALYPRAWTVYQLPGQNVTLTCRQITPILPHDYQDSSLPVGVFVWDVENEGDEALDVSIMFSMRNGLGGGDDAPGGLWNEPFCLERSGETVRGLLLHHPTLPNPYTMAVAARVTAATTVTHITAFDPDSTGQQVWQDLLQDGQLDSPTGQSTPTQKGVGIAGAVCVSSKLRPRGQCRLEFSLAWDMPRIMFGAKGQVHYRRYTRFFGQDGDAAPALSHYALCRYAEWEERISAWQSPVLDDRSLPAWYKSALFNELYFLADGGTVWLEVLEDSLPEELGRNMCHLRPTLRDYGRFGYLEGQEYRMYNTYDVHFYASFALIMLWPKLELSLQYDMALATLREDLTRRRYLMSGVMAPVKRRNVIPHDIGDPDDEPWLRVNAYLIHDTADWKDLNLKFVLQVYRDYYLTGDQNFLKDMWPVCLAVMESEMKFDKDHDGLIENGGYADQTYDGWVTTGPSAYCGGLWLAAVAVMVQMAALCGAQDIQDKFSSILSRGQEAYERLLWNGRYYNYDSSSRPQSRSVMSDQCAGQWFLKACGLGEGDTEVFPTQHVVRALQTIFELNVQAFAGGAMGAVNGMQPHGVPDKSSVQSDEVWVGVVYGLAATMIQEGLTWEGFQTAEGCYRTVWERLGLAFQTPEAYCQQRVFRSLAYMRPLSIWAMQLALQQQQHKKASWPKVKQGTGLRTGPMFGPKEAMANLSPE

[2] = molecular target: Alpha amylase (Homo sapiens) (UniProt P0DUB6); assay: Inhibition of alpha-amylase (unknown origin) up to 200 uM
[3] = species: Homo sapiens; assay: Inhibition of alpha-mannosidase (unknown origin) up to 200 uM
[4] = species: Homo sapiens; assay: Inhibition of alpha-galactosidase (unknown origin) up to 200 uM
[5] = test system: Saccharomyces cerevisiae; assay: (§1) Inhibition of baker's yeast alpha-glucosidase using pNPG as substrate by spectrophotometry
[6] = as §1; set-up: species or system Saccharomyces cerevisiae
[7] = Uncompetitive inhibition of baker's yeast alpha-glucosidase using pNPG as substrate by Cornish-Bowden plot analysis; set-up: species or system Saccharomyces cerevisiae
[8] = test system: Saccharomyces cerevisiae; assay: Uncompetitive inhibition of baker's yeast alpha-glucosidase using pNPG as substrate assessed as ratio of Kik to Kiv at 0.39 uM by Lineweaver-Burk plot analysis
[9] = test system: Saccharomyces cerevisiae; assay: Uncompetitive inhibition of baker's yeast alpha-glucosidase using pNPG as substrate assessed as ratio of Kik to Kiv at 0.78 uM by Lineweaver-Burk plot analysis
[10] = test system: Saccharomyces cerevisiae; assay: Uncompetitive inhibition of baker's yeast alpha-glucosidase using pNPG as substrate assessed as ratio of Kik to Kiv at 1.56 uM by Lineweaver-Burk plot analysis
[11] = test system: Saccharomyces cerevisiae; assay: Uncompetitive inhibition of baker's yeast alpha-glucosidase using pNPG as substrate assessed as ratio of Kik to Kiv at 0.19 uM by Lineweaver-Burk plot analysis

Sequence of Alpha amylase (Homo sapiens) (P0DUB6 whole entry, looked up): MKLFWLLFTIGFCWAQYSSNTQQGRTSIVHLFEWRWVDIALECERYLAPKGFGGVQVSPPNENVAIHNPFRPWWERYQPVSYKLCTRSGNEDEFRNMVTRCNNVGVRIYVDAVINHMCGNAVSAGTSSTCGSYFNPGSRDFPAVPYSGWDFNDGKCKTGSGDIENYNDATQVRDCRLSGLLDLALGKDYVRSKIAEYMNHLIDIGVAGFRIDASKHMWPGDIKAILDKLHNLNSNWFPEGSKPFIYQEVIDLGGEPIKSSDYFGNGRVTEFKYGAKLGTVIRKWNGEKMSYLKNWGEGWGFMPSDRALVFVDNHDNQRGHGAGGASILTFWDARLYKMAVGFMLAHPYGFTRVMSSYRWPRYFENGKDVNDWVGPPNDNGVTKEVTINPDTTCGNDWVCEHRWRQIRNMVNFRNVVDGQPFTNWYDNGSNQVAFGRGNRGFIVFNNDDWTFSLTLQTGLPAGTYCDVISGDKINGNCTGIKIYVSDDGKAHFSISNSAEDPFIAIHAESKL

Row | SMILES | inhibition [1] | inhibition [2] | inhibition [3] | inhibition [4] | inhibition [5] | IC50 [6] [µM] | Ki [7] [µM] | Ratio [8] | Ratio [9] | Ratio [10] | Ratio [11]
1 | COc1cc(/C=C/C(=O)NC(O)C(=O)c2ccc(O)cc2)ccc1O (centres undefined) | inactive | inactive | inactive | inactive | Dose-dependent effect | 226 |  |  |  |  | 
2 | O=C(CCc1ccc(O)cc1)NCCc1ccc(O)cc1 |  |  |  |  |  | 19 | 18.2 |  |  |  | 
3 | O=C(/C=C/c1ccc(O)cc1)NCCc1ccc(O)c(O)c1 |  |  |  |  |  | 1.63 | 1.74 |  |  |  | 
4 | COc1cc(/C=C/C(=O)NCCc2ccc(O)cc2)ccc1O [N-TRANS-FERULOYL TYRAMINE] | inactive | inactive | inactive | inactive | Dose-dependent effect | 10.6 | 11.3 |  |  |  | 
5 | O=C(/C=C/c1ccc(O)cc1)NCCc1ccc(F)cc1 |  |  |  |  |  | 1.22 | 1.38 |  |  |  | 
6 | O=C(/C=C/c1ccc(O)cc1)NCCc1ccccc1 |  |  |  |  |  | 0.31 | 0.29 |  |  |  | 
7 | COc1cc(/C=C/C(=O)NCC(=O)c2ccc(O)cc2)ccc1O | inactive | inactive | inactive | inactive | Dose-dependent effect | 61.5 | 62.1 |  |  |  | 
8 | O=C(/C=C/c1ccccc1)NCCc1ccc(O)cc1 |  |  |  |  |  | 215 |  |  |  |  | 
10 | COc1cc(/C=C/C(=O)NCC(O)c2ccc(O)cc2)ccc1O (centres undefined) | inactive | inactive | inactive | inactive | Dose-dependent effect | 188 |  |  |  |  | 
11 | O=C(/C=C/c1ccc(O)cc1)NCCc1ccc(O)cc1 [N-P-COUMAROYL TYRAMINE] | inactive | inactive | inactive | inactive | Dose-dependent effect | 0.42 | 0.35 | 1.04 | 1.05 | 1.03 | 1.03
12 | O=C(/C=C/c1ccc(O)c(O)c1)NCCc1ccc(O)cc1 | inactive | inactive | inactive | inactive | Dose-dependent effect | 1.86 | 1.77 |  |  |  | 
